Reference: patent US20220184015A1, “COMPOSITIONS AND METHODS TO POTENTIATE MUSCULOSKELETAL EFFECT OF ONE OR MORE ANABOLIC AMINO ACIDS ON BONE HEALTH” (SOCIETE DES PRODUITS NESTLE S.A., priority 2019, published 2022)

Tests used:
Assay type in all cases: in vivo
[1] = test system: LC3 protein fused to ZsGreen under the control of a skeletal muscle specific promoter; assay: zebrafish autophagy reporter, number of LC3 punctae in larvae; conditions: for effect on basal autophagy: summary statement referring to the experimental data; for autophagy activation by individual amino acids (FIG. 1) / autophagy activation by individual amino acids (FIG. 3) / autophagy activation by individual amino acids (FIG. 2): zebrafish larvae, 0.25 to 10 mM, 16 hours of treatment
Source text: Z stack images were captured for each larva and maximal projection images were produced. Number of LC3 punctae have been calculated with MetaXpress software (Moleculare Devices) and normalized by fish area.

bone stiffness = bone stiffness (bone strength) in old mice after 3 months; conditions: old mice (78 weeks old), thymol by gavage, AA mix in water, FIG. 6b
Source text: (§1) Assessment of the long term (3 months) effect of thymol (an exemplary autophagy-inducing agent) and an amino acid mix, known as autophagy inducers, alone or in combination, on muscle function in old mice. […] Old mice (78 weeks old; n=12/group; inventions) were taking 1) thymol (compound 1); 2) an amino acid (AA) mix and thymol (compounds 2 and 1); or 3) the AA mix (compound 2). In the experiments, thymol was given by gavage; the AA mix was given in water; and alanine for isonitrogenous was given as a control to young mice (Adult). Old untreated mice were also used as another control (old untreated). The AA mix comprises 28.67% of Leucine, 14.29% of Isoleucine, 14.29% of Valine, 12.21% of Proline, 12.21% of Glycine, 14.84% of Lysine and 3.48% of Cysteine (See Table 1).

bone mineral density = bone mineral density in old mice after 3 months; conditions: old mice (78 weeks old), thymol by gavage, AA mix in water, FIG. 6a
Source text: as §1

Row | Structure (SMILES) | effect on basal autophagy [1] | autophagy activation by individual amino acids (FIG. 1) [1] | autophagy activation by individual amino acids (FIG. 2) [1] | further results
1 | N=C(N)NCCC[C@H](N)C(=O)O [Arginine] | reduce basal autophagy | show at least some autophagy activation effects | – | autophagy activation by individual amino acids (FIG. 3) [1]: shows less autophagy activation effects
2 | NC(=O)C[C@H](N)C(=O)O [Asparagine] | – | show at least some autophagy activation effects | – | –
3 | N[C@@H](CS)C(=O)O [Cysteine] | – | show at least some autophagy activation effects | show autophagy activation effects | –
4 | N[C@@H](CCC(=O)O)C(=O)O [Glutamate] | – | show at least some autophagy activation effects | – | autophagy activation by individual amino acids (FIG. 3) [1]: show clear autophagy activation effects
5 | NC(=O)CC[C@H](N)C(=O)O [Glutamine] | reduce basal autophagy | – | – | –
6 | NCC(=O)O [Glycine] | – | show at least some autophagy activation effects | show autophagy activation effects | –
7 | CC[C@H](C)[C@H](N)C(=O)O [Isoleucine] | reduce basal autophagy | – | – | –
8 | CC(C)C[C@H](N)C(=O)O [Leucine] | reduce basal autophagy | – | does not show any autophagy activation effect | –
9 | N[C@@H](Cc1ccccc1)C(=O)O [Phenylalanine] | – | show at least some autophagy activation effects | – | –
10 | O=C(O)[C@@H]1CCCN1 [Proline] | – | show at least some autophagy activation effects | – | autophagy activation by individual amino acids (FIG. 3) [1]: show clear autophagy activation effects
11 | N[C@@H](Cc1ccc(O)cc1)C(=O)O [Tyrosine] | – | show at least some autophagy activation effects | – | –
12 | CC(C)[C@H](N)C(=O)O [Valine] | – | show at least some autophagy activation effects | show autophagy activation effects | –
13 | Cc1ccc(C(C)C)c(O)c1 [thymol] | – | – | – | increase in bone stiffness as compared with the control of the old untreated (bone stiffness): 12%; increase in bone mineral density as compared with the control of the old untreated (bone mineral density): 1.6%
